Results as given in ChEMBL document CHEMBL2346530, “Discovery of non-peptide inhibitors of Plasmepsin II by structure-based virtual screening” (Bioorg Med Chem Lett, 2013).

Legend:
[1] = biological target: Plasmepsin II (Plasmodium falciparum) (UniProt P46925); assay: Inhibition of recombinant Plasmodium falciparum plasmepsin 2 expressed in Escherichia coli using DABCYL-Glu-Arg-Nle-Phe-Leu-Ser-Phe-Pro-EDANS as substrate at 10 uM incubated for 40 mins prior to substrate addition measured after 10 mins by FRET-based fluorometric analysis
[2] = biological target: Plasmepsin II (Plasmodium falciparum, UniProt P46925); assay: Inhibition of recombinant Plasmodium falciparum plasmepsin 2 expressed in Escherichia coli using DABCYL-Glu-Arg-Nle-Phe-Leu-Ser-Phe-Pro-EDANS as substrate incubated for 40 mins prior to substrate addition measured after 10 mins by FRET-based fluorometric analysis
Sequence of Plasmepsin II (P46925 whole entry): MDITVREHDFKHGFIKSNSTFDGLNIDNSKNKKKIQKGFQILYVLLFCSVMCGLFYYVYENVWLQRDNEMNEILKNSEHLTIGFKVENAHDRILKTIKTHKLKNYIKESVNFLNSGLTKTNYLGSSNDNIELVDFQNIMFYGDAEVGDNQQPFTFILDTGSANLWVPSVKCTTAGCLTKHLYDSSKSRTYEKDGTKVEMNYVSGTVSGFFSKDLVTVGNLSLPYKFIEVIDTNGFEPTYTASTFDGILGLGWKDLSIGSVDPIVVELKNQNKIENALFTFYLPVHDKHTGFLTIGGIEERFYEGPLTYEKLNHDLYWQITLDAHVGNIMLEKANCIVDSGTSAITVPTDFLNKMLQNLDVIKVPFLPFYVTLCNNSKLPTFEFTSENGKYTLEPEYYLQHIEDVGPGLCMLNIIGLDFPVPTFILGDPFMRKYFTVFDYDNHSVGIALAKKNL

Sequence of Plasmepsin II (Plasmodium falciparum) (P46925 125-453 limits assumed): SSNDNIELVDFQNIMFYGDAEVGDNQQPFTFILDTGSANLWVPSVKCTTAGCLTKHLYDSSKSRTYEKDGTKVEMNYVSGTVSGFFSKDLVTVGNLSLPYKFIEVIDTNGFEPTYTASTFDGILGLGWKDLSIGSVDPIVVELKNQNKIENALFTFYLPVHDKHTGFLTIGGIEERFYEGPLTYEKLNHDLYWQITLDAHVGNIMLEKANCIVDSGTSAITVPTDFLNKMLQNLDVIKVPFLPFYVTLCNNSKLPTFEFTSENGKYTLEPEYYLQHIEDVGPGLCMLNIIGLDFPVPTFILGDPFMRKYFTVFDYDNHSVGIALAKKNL

SMILES | inhibition [1] [%] | IC50 [2] [µM]
Cc1ccccc1N/C(=N\N=C/c1ccc2ccc3ccc(/C=N\N=C(/Nc4ccccc4C)c4ccccn4)nc3c2n1)c1ccccn1 | 67.7 | 4.62
Cc1ccc(S(=O)(=O)Nc2ccccc2CNc2cnc3ccccc3c2)cc1 | 60.6 | 7
N=C(S)NN/C(=C\c1nc(-c2ccccn2)cc2ccccc12)c1ccc(Cl)cc1 | 55 | 6.45
O=C(CN(c1cccc(Br)c1)S(=O)(=O)c1ccccc1)Nc1ccc(CSc2ccccc2)cc1 | 54.7 | 8.99
OC(CNCc1ccccc1)Cn1c2ccc(Cl)cc2c2cc(Cl)ccc21 (stereo not given) | 52 | 9.47
